Values of other authors, collected in patent publication US9145372B2, “Pyridazine derivatives, compositions and methods for treating cognitive impairment” (AGENEBIO, INC., priority 2010, dated 2015).

Molecular target: T1, α5-containing GABAA R (Homo sapiens, UniProt P18507+P31644)
T1 sequence (P31644 32-462): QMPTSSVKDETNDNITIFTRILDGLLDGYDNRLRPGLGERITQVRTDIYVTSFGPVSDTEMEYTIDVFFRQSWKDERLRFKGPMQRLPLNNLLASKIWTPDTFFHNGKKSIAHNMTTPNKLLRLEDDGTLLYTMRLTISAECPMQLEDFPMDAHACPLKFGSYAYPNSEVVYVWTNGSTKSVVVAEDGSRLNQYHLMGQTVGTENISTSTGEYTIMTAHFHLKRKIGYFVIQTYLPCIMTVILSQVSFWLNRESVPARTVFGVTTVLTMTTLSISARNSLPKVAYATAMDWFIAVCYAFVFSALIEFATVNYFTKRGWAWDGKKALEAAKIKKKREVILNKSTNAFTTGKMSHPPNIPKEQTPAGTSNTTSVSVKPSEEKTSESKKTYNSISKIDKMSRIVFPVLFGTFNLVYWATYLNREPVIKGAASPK
T1 sequence (P28472 26-473 partner): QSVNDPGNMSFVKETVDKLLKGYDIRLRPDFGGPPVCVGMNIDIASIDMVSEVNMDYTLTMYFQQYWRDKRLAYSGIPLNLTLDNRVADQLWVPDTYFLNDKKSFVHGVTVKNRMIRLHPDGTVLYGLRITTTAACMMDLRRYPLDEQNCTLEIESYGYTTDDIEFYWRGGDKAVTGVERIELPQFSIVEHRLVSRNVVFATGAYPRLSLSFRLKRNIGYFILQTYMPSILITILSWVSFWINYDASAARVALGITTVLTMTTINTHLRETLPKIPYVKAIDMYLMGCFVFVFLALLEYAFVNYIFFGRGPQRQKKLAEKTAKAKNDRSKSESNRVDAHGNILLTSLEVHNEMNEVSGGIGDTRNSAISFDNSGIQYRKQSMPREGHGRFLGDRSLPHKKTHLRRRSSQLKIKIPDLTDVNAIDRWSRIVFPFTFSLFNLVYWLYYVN
T1 sequence (P18507 40-467 limits assumed): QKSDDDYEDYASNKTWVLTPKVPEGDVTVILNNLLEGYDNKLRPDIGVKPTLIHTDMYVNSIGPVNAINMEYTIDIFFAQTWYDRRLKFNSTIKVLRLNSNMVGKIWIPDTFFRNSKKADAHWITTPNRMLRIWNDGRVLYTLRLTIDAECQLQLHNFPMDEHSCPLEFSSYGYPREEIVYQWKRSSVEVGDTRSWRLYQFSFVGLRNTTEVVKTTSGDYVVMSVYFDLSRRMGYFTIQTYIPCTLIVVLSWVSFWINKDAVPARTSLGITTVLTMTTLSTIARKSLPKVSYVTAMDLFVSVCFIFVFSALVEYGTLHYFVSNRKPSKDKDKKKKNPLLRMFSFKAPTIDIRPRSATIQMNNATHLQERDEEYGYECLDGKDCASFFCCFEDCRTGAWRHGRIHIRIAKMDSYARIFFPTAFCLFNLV
Conditions: at GABA EC20; van Niel et al.; cited from earlier work

For `COC(=O)c1c(-c2ccccc2)cnnc1-c1ccccc1` [methyl 3,5-diphenylpyridazine-4-carboxylate], the “α5 in vitro efficacy (EC20)” value is listed as “+27”.
